As usually defined, the Km is the concentration of substrate that gives half-maximal velocity.

One molecule from patent publication US10273544B2, “Methods for predicting likelihood of responding to treatment” (Dana-Farber Cancer Institute, Inc., priority 2010, dated 2019) can be followed below.

One series deals with T1, SLCO2B1-312Gln (Homo sapiens, UniProt O94956, R312Q).
T1 sequence (O94956 1-709 R312Q): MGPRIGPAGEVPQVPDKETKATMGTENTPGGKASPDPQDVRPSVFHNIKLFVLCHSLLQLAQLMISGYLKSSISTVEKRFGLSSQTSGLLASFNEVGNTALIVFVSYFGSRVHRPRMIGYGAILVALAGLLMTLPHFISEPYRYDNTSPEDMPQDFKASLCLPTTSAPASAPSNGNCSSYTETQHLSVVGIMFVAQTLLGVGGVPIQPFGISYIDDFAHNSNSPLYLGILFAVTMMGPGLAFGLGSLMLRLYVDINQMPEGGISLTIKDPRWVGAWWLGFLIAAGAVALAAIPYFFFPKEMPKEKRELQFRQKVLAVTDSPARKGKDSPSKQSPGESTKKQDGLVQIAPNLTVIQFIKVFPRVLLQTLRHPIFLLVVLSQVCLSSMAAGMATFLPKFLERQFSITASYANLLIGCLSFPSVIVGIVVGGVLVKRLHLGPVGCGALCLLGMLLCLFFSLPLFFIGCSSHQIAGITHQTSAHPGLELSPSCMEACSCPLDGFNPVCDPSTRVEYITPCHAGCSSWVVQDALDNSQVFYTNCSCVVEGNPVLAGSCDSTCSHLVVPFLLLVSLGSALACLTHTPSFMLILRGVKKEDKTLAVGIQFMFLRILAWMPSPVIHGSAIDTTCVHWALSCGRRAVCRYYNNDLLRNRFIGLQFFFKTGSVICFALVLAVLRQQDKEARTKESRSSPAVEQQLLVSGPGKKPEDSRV
Put plainly: DHEAS uptake assay in LNCaP cells transfected with SLCO2B1-312Gln. The settings on record: read-out: best-fit Km for DHEAS uptake; SLCO2B1-312Gln variant, nonlinear regression. The text has this: (§1) Two full-length SLCO2B1 cDNAs, SLCO2B1-312Gln (having a G at the position 935) and SLCO2B1-312Arg (having an A at position 935), were cloned into the pCMV6-XL4 vector (OriGene Technologies, Rockville, Md.). The SLCO2B1 935G>A nucleotide exchange was introduced into the cDNA using the QuikChange Site-Directed Mutagenesis kit (Stratagene, La Jolla, Calif.). Primers used for the mutagenesis were 5′-[…]-3′ (SEQ ID NO:1) and 5′-[…]-3′ (SEQ ID NO:2) (underlined sequences encode 312Arg).
(§2) LNCaP cells were maintained in RPMI 1640 supplemented with 10% fetal bovine serum (FBS). Twenty-four hours before transfection, 2×10^5 cells were seeded in 12-well plates using Phenol-Red free RPMI 1640 supplemented with 10% charcoal-stripped FBS. LNCaP cells were transiently transfected with pCMV-SLCO2B1-312Gln, pCMV-SLCO2B1-312Arg, or pCMV6-XL4 empty vector using Lipofectamine^2000 according to the manufacturer's instructions.
(§3) The enzyme immunoassay test is based on the competition that occurs between an unlabeled antigen (present in standards, control and samples) and an enzyme-labeled antigen (conjugate) for a limited number of antibody binding sites on the microwell plate. The sensitivity of the kit is 5 ng/ml.

The next series deals with T2, SLCO2B1-312Arg (Homo sapiens, UniProt O94956).
T2 sequence (O94956 1-709 R312Q): T1 sequence (O94956 1-709 R312Q)
Put plainly: DHEAS uptake assay in LNCaP cells transfected with SLCO2B1-312Arg. The settings on record: read-out: best-fit Km for DHEAS uptake; SLCO2B1-312Arg variant, nonlinear regression.
Description: as §1, §2, §3

Series [1] has as its system LNCaP cells. Put plainly: DHEAS uptake assay in LNCaP cells (mock transfected; transfected cells overall). The class given is cell-based. Here is the method: The sensitivity of the kit is 5 ng/ml. […] Samples were tested in triplicate.
The test system of another series is PSA. Put plainly: AR mediated PSA expression by quantitative RT-PCR. The class given is cell-based. The procedure: (§4) Total RNA was isolated from cells using TRIzol reagent (Invitrogen, Carlsbad, Calif.) and then converted to cDNA using High Capacity cDNA Reverse Transcription kit (Applied Biosystems, Foster City, Calif.). The expression levels of SLCO2B1 and GAPDH were measured using a standard TaqMan PCR kit protocol. Experiments were carried out in triplicate for each data point. Real-time PCR primers and probe sets were inventoried products of Applied Biosystem (Assay ID: Hs00200670_m1 and Hs02758991_g1).
(§5) The expression levels of AR and PSA were measured using a standard TaqMan PCR kit protocol (Hs02576345_m1 and Hs00171172_m1) as described in Example 3.

In a further series the test system is AR. The series can be described thus: AR expression by quantitative RT-PCR. The class given is cell-based. The settings on record: LNCaP and LAPC4 cell lines. Here is the method:
as §4, §5

Series [2] has as its system LNCaP cells. The series can be described thus: Cell proliferation, WST-1 assay, LNCaP. The settings on record: 100 μM DHEAS, wild type LNCaP, androgen-depleted medium. The class given is cell-based. The procedure:
Cell proliferation was determined using a WST-1 kit (Roche, Indianapolis, Ind.). […] Tetrazolium salt cell proliferation assay then was carried out at different days after transfection, following the manufacturer's instructions.
On the technique in general: Tetrazolium assays rely on reduction of a dye to a coloured formazan, in cell work by metabolically active cells.

Regarding `C[C@]12CC[C@H](OS(=O)(=O)O)CC1=CC[C@@H]1[C@@H]2CC[C@]2(C)C(=O)CC[C@@H]12` [DHEAS, sulfated dehydroepiandrosterone], the Km at SLCO2B1-312Gln is 17.7 µM; on SLCO2B1-312Arg, 13.7 µM. For the same molecule, in the series on LNCaP cells [1] (100 μM DHEAS, pCMV6-XL4 vector (mock) transfected LNCaP cells), the “uptake of DHEAS” value was 51.66±7.44 pmol/mg protein. In the series with LNCaP cells [1] (100 μM DHEAS, various transfected LNCaP cells), the “incubation time at which DHEAS uptake reached maximum levels” value came to 1 h. The “DHEAS concentration at which uptake saturation is reached” value with LNCaP cells [1] (SLCO2B1 variant transfected LNCaP cells) lay in the range of 60 to 100 µM. Also, the “up-regulation of PSA expression, SLCO2B1-Gln cells compared to SLCO2B1-Arg cells” value in the series with PSA (100 μM DHEAS, LAPC-4 cells) worked out at 1.48 fold. Further, the “effect of increasing DHEAS level on PSA expression” value in the series on PSA (wild type LNCaP and LAPC-4 cell lines and cells transfected with SLCO2B1) was “up-regulated PSA expression”. Also, the “effect of DHEAS exposure on AR mRNA levels” value in the series on AR is recorded as “increased AR mRNA levels”. The “increase of growth rate” value with LNCaP cells [2] was “about 1.4 fold”.
